# According to the supplement of paper PMC13380429:
# Assays:
# Conditions in all cases: 72 h
# [1] = tested on: HepG2; assay: drug sensitivity score (DSS) for viability; higher = more toxic; extreme values may be limits of the assay
# [2] = tested on: Caco-2; assay: as above
# [3] = tested on: U2OS; assay: as above
# [4] = tested on: Calu-3; assay: as above
# [5] = tested on: Vero E6; assay: as above
# [6] = tested on: HepG2; assay: cell viability relative to DMSO; higher = less toxic
# [7] = tested on: Caco-2; assay: as above
# [8] = tested on: U2OS; assay: as above
# [9] = tested on: Calu-3; assay: as above
# [10] = tested on: Vero E6; assay: as above
# [11] = tested on: HepG2; assay: relative viability EC50 (midpoint between 100% and the lowest measured viability); higher = less toxic
# [12] = tested on: Caco-2; assay: as above
# [13] = tested on: U2OS; assay: as above
# [14] = tested on: Calu-3; assay: as above
# [15] = tested on: Vero E6; assay: as above
Structure (SMILES),drug sensitivity score [1],drug sensitivity score [2],drug sensitivity score [3],drug sensitivity score [4],drug sensitivity score [5],cell viability ([6]; 1 nM),cell viability ([6]; 10 nM),cell viability ([6]; 100 nM),cell viability ([6]; 1000 nM),cell viability ([6]; 10000 nM),cell viability ([7]; 1 nM),cell viability ([7]; 10 nM),cell viability ([7]; 100 nM),cell viability ([7]; 1000 nM),cell viability ([7]; 10000 nM),cell viability ([8]; 1 nM),cell viability ([8]; 10 nM),cell viability ([8]; 100 nM),cell viability ([8]; 1000 nM),cell viability ([8]; 10000 nM),cell viability ([9]; 1 nM),cell viability ([9]; 10 nM),cell viability ([9]; 100 nM),cell viability ([9]; 1000 nM),cell viability ([9]; 10000 nM),cell viability ([10]; 1 nM),cell viability ([10]; 10 nM),cell viability ([10]; 100 nM),cell viability ([10]; 1000 nM),cell viability ([10]; 10000 nM),relative viability EC50 [11],relative viability EC50 [12],relative viability EC50 [13],relative viability EC50 [14],relative viability EC50 [15]
CN1CCCC(n2nc(Cc3ccc(Cl)cc3)c3ccccc3c2=O)CC1 (stereo not given) [azelastine],0.3,0,0,0,0,113%,91.5%,101%,89.3%,89.2%,95.2%,91.2%,98.2%,94.2%,87%,104%,111%,98.8%,100%,93.4%,97.1%,96.7%,105%,114%,92.3%,108%,95%,110%,103%,94.9%,> 10 µM,> 10 µM,> 10 µM,> 10 µM,> 10 µM
NC(CO)C(=O)NNCc1ccc(O)c(O)c1O (stereo not given) [benserazide],0,0,0,0,0,80.5%,97.4%,104%,85%,94.5%,95.7%,99%,81.6%,97.8%,87.9%,96.8%,101%,93%,99.8%,94%,88.9%,89.8%,95.7%,96.2%,92.2%,115%,99.8%,106%,97%,106%,> 10 µM,> 10 µM,> 10 µM,> 10 µM,> 10 µM
CCOC(=O)c1ccc(N)cc1 [benzocaine],0,0,0,0,0,98.6%,94.9%,98.1%,95%,96.5%,96.4%,84.7%,101%,97.9%,97%,99.3%,95.4%,99.9%,99.6%,95.5%,94%,96%,105%,105%,98.7%,103%,102%,95.7%,102%,110%,> 10 µM,> 10 µM,> 10 µM,> 10 µM,> 10 µM
CN(Cc1cc(Br)cc(Br)c1N)C1CCCCC1 [bromhexine],0,0,0,0,0,99.2%,108%,107%,97.9%,108%,96.2%,109%,100%,97.9%,94.6%,98.9%,105%,96.3%,99.5%,98.2%,92%,90.7%,95.1%,90.9%,95.4%,110%,97.9%,106%,102%,103%,> 10 µM,> 10 µM,> 10 µM,> 10 µM,> 10 µM
Cc1ccc(Cl)c(OCC(O)CNC(C)(C)C)c1 (stereo not given) [bupranolol],0,0,0,0,0,99.3%,97.6%,104%,97.8%,94.6%,109%,89%,91.5%,99.5%,107%,101%,98.1%,99.6%,101%,104%,98.2%,99.8%,93.6%,105%,104%,93.6%,97.5%,97.2%,100%,103%,> 10 µM,> 10 µM,> 10 µM,> 10 µM,> 10 µM
C[C@@H]1NC(=O)[C@@H](N)CNC(=O)[C@H](C2CCNC(=N)N2)NC(=O)/C(=C/NC(N)=O)NC(=O)[C@H](CNC(=O)CC(N)CCCN)NC1=O.N=C1NCC[C@H]([C@@H]2NC(=O)/C(=C/NC(N)=O)NC(=O)[C@H](CNC(=O)C[C@@H](N)CCCN)NC(=O)[C@H](CO)NC(=O)[C@@H](N)CNC2=O)N1 [capreomycin],0,0,0,0,0,94.4%,102%,105%,108%,99.1%,96.2%,94.8%,98%,95%,99.3%,103%,100%,102%,96%,106%,104%,100%,105%,95.3%,108%,98.8%,105%,102%,94.1%,94.8%,> 10 µM,> 10 µM,> 10 µM,> 10 µM,> 10 µM
CO/N=C(\C(=O)N[C@@H]1C(=O)N2C(C(=O)[O-])=C(C[n+]3ccn4ncccc43)CS[C@H]12)c1nsc(N)n1 [cefozopran],0,0,0,0,0,89.7%,90%,88.8%,104%,102%,93.7%,97.9%,96.5%,96.7%,99%,97%,97.7%,102%,107%,104%,102%,104%,93.6%,104%,118%,92.7%,99.9%,94%,98.7%,109%,> 10 µM,> 10 µM,> 10 µM,> 10 µM,> 10 µM
CCOP(=S)(OCC)Oc1nc(Cl)c(Cl)cc1Cl [chlorpyrifos],0,0,0,0,0,93.3%,100%,90.3%,96.3%,93.7%,100%,102%,97.5%,103%,107%,92.3%,102%,94.9%,94.8%,99.4%,89.7%,93.6%,90.1%,97%,96.2%,102%,90.2%,109%,106%,94.2%,> 10 µM,> 10 µM,> 10 µM,> 10 µM,> 10 µM
NS(=O)(=O)c1cc(C2(O)NC(=O)c3ccccc32)ccc1Cl (stereo not given) [chlorthalidone],0,0,0,0,0,97.5%,106%,97.7%,107%,99.6%,107%,84.5%,96.8%,98.6%,99%,98.4%,97.4%,97.3%,96.8%,102%,96.7%,92%,107%,86.6%,97.4%,97.4%,102%,98.8%,103%,97.3%,> 10 µM,> 10 µM,> 10 µM,> 10 µM,> 10 µM
Cc1cc(O)c2c(c1)C(=O)c1cccc(O)c1C2=O [chrysophanic-acid],0,0.8,0,0,0,98.4%,104%,97.8%,95.7%,105%,102%,91.2%,92%,92.5%,88.9%,99.5%,103%,96.7%,104%,97.7%,104%,98.1%,92.4%,91.2%,93%,93.5%,97.3%,100%,93.5%,96.1%,> 10 µM,> 10 µM,> 10 µM,> 10 µM,> 10 µM
Nc1ncnc2c1ncn2[C@@H]1O[C@H](CO)C[C@H]1O [cordycepin],0,0,0,0,0,95.3%,98.9%,104%,97.4%,114%,93.9%,99%,95.2%,97.5%,103%,95.7%,99.3%,95%,105%,110%,94.6%,98.6%,86.1%,92.5%,101%,96.6%,97%,96.2%,98.1%,103%,> 10 µM,> 10 µM,> 10 µM,> 10 µM,> 10 µM
COc1ccc(CCN2CCN(CCCc3ccccc3)CC2)cc1OC [cutamesine],0,0,0,0,0,91.5%,97.2%,88.9%,98.4%,85%,97.9%,95.6%,96%,92.9%,98%,106%,100%,104%,93.5%,96.8%,95.9%,110%,102%,119%,96.8%,102%,92.5%,102%,96.2%,95.6%,> 10 µM,> 10 µM,> 10 µM,> 10 µM,> 10 µM
Cc1c(O)c(=O)ccn1C [deferiprone],0,0,0,0,0,103%,97.4%,98.3%,97.1%,101%,92.4%,98.3%,93.4%,116%,93.4%,96.5%,100%,100%,94.5%,96.2%,89.6%,106%,109%,100%,98.2%,101%,102%,99.3%,98.1%,99.9%,> 10 µM,> 10 µM,> 10 µM,> 10 µM,> 10 µM
CN(C)[C@@H]1C(O)=C(C(N)=O)C(=O)[C@@]2(O)C(O)=C3C(=O)c4c(O)ccc(Cl)c4[C@@H](O)[C@H]3C[C@@H]12 [demeclocycline],0,0,0,0,0,89.5%,97.6%,97.3%,102%,94.9%,99.9%,95.9%,101%,95.5%,96.3%,105%,98%,101%,96.3%,93.8%,112%,115%,102%,98.9%,93.4%,98.1%,103%,110%,99.6%,91%,> 10 µM,> 10 µM,> 10 µM,> 10 µM,> 10 µM
